This note sets out measurements from patent US11787839B2, “Targeting α2δ-1-bound glutamate receptors for treating diseases and disorders” (Board of Regents, The University of Texas System, priority 2017, dated 2023).

The target in series [1] is T1, NMDARs of spinally projecting PVN neurons (Rattus norvegicus, UniProt P35439+Q00959+Q00960).
T1 construct: from tissue; host or cells: rat hypothalamic slices containing the PVN (Sprague-Dawley, WKY, SHR) and synaptosomes made from them
Nature of the series: Recordings of spinally projecting PVN neurons in rat brain slices (Ang II). The class given is cell-based. The settings on record: losartan 2 μmol/L, pregabalin 20 μmol/L, peptides 1 μmol/L. The source says:
Retrograde labeling of spinally projecting PVN neurons: Rats or mice were anesthetized with 2-3% isoflurane, and their spinal cords at the T1-T4 level were exposed through dorsal laminectomy. A fluorescent microsphere suspension (FluoSpheres, 0.04 μm; Molecular Probes, Invitrogen, Eugene, Oreg.) was pressure ejected (Nanoject II Microinjectors, Drummond Scientific Company, Broomall, Pa.) bilaterally into the IML region of the spinal cord in six separate 50-nl injections using a glass micropipette (tip diameter, 20-30 μm). […] The wound was closed with sutures after injection. Animals were returned to their cages for 4-7 days, which was sufficient time to permit the tracer to be retrogradely transported to the PVN. The animals were inspected daily for motor activity, signs of infection, and food and water intake.
Brain slice preparation: Four to seven days after fluorescent tracer injection, the animals were anesthetized with isoflurane and rapidly decapitated. […] Coronal slices (thickness, 300 μm) containing the PVN were cut from the tissue block in the ice-cold aCSF. […] The brain slices were placed in a glass-bottom chamber and continuously perfused with aCSF at 3.0 ml/min at 34° C. maintained by an inline solution heater and temperature controller.
The labeled PVN neurons were briefly identified with the aid of epifluorescence illumination, and whole-cell recordings from labeled PVN neurons were performed under differential interference contrast optics on an upright microscope (BX50 WI; Olympus Optical, Tokyo, Japan). Recordings of postsynaptic currents began 5 min after the whole-cell access was established and the current reached a steady state.
Signals were processed with an […] amplifier (Axon Instruments, Foster City, Calif.). A liquid junction potential of 15 mV (for the potassium gluconate pipette solution) was corrected during off-line analysis.
Postsynaptic NMDAR currents were elicited by puff application of 100 μmol/L NMDA to the recorded neuron using a positive pressure system (4 p.s.i., 50 ms; Toohey Company, Fairfield, N.J.). The tip of the puff pipette was placed 150 μm from the recorded neuron. […] The NMDAR current data presented in the manuscript were the average of 3 consecutive currents elicited by repeated puff NMDA. The neuron was discarded if the current was not stable.
Ang II, losartan, and NMDA were obtained from Sigma (St. Louis, Mo.). The α2δ-1Tat peptide and scrambled control peptide were synthesized by Bio Basic Inc. (Markham, Ontario, Canada) and validated by liquid chromatography and mass spectrometry. […] All drugs were prepared immediately before the experiments and applied to the slice chamber. The brain slices were first pretreated with Ang II, losartan, α2δ-1Tat peptide, or control peptide in the slice incubation chamber before recording. For electrophysiological recording, the treatment agents were immediately removed and the brain slice transferred to a separate recording chamber.

The subject of series [2] is rats treated with the Cacna2d1 vector. Nature of the series: Withdrawal thresholds in rats overexpressing Cacna2d1 (lentiviral vector). The class given is in vivo, rat. The conditions noted are these: Cacna2d1 vector rats; AP5, peptide, gabapentin intrathecal; memantine systemic.
The subject of another series is morphine-treated rats. Nature of the series: Opioid-induced hyperalgesia and analgesic tolerance in rats.
Series [3] relates to presynaptic NMDARs of spinal dorsal horn neurons. The series is described as follows: Spinal cord slice recordings, morphine-treated WT and Cacna2d1 KO mice. The settings on record: WT mice.
The next series deals with WT and Cacna2d1 KO mice. The series is described as follows: Opioid-induced hyperalgesia and analgesic tolerance in WT and Cacna2d1 KO mice.
Another series deals with paclitaxel-treated rats. The series is described as follows: Paclitaxel-induced pain hypersensitivity in rats. The class given is in vivo, rat. The settings on record: intrathecal 5 μg pregabalin, 1 μg peptides. Here is the method:
To induce neuropathic pain, rats and mice were intraperitoneally injected with paclitaxel (2 mg/kg; TEVA Pharmaceuticals, North Wales, Pa.) every 2 days for a total of 4 injections (days 1, 3, 5 and 7; total dose, 8 mg/kg), as described previously (Polomano et al., 2001). Animals in the control group were intraperitoneally injected with the vehicle (Cremophor EL/ethanol, 1:1) on the same 4 days. The presence of tactile allodynia was confirmed 10 to 12 days after drug treatment. Intrathecal catheters were implanted in some paclitaxel-treated rats during isoflurane-induced anesthesia. Briefly, a small puncture was made in the atlanto-occipital membrane of the cisterna magna and inserted a PE-10 catheter with the caudal tip reaching the lumbar enlargement of the spinal cord (Chen et al., 2014a; Xie et al., 2016).
Behavioral assessment of nociception: To measure tactile allodynia, mice or rats were individually placed on a mesh floor within a suspended chamber. […]
To quantify the mechanical nociceptive threshold in rats, the paw pressure (Randall-Selitto) test was conducted on the left hindpaw using an analgesiometer (Ugo Basile, Varese, Italy). […] When the rat withdrew its paw or vocalized, the pedal was immediately released, and the withdrawal threshold was recorded (Chen et al., 2014a). […]
To assess the thermal sensitivity of rats, the were placed individually on the glass surface of a thermal testing apparatus (IITC Life Sciences, Woodland Hills, Calif.). […] The paw withdrawal latency was recorded with a timer, and the hindpaw was tested twice to obtain an average time. […] After the threshold temperature was recorded, the mice were immediately removed from the plate. The heat threshold measurement was repeated 30 min later, and the average of the 2 recorded temperatures was considered as the heat threshold. The cold threshold was measured by cooling the plate from 30° C. at a rate of 6° C./min until nocifensive behaviors were observed. […]

In series [4] the target is presynaptic NMDARs of spinal lamina II neurons (Rattus norvegicus, UniProt P35439+Q00959+Q00960).
Sequence of presynaptic NMDARs of spinal lamina II neurons (Q00959 20-1464 limits assumed, other chains not shown): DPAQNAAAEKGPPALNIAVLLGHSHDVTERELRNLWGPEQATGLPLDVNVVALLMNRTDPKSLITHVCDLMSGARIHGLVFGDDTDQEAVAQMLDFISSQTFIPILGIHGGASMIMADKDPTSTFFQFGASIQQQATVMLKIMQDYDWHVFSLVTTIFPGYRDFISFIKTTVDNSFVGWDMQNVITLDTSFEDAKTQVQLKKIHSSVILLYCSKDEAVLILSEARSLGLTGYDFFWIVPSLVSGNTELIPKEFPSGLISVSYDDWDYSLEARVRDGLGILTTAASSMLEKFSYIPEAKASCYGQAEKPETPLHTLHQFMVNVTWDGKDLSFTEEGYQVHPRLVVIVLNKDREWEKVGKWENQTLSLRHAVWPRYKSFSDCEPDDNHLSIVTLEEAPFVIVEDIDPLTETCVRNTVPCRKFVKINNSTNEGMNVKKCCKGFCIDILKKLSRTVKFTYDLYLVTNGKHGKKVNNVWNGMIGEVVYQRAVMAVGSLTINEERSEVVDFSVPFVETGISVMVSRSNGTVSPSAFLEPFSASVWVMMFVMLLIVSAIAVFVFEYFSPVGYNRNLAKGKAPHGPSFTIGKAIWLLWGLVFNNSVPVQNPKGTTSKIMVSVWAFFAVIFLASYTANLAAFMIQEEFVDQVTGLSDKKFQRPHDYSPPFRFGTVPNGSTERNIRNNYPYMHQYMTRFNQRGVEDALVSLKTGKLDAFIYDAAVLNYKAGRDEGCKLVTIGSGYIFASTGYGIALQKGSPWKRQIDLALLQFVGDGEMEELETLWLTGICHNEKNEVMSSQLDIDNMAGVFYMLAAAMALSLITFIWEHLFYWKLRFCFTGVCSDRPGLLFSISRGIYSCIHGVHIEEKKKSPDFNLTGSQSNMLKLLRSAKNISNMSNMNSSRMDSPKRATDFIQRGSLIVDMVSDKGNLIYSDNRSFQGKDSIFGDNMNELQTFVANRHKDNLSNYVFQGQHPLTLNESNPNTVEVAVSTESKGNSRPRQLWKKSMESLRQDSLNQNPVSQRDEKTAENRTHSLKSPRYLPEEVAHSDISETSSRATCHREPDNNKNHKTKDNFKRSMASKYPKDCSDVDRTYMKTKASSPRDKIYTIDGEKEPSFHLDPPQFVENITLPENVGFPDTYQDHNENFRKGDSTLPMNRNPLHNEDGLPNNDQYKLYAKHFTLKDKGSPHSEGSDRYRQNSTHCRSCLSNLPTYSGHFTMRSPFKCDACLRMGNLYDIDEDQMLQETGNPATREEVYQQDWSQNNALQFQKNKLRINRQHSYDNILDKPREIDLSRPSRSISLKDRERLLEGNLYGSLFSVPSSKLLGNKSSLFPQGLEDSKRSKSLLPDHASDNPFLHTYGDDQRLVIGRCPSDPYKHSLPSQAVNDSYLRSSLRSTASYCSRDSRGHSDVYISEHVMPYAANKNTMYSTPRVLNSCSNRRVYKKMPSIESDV
Sequence of presynaptic NMDARs of spinal lamina II neurons (Q00960 27-1482, other chains not shown): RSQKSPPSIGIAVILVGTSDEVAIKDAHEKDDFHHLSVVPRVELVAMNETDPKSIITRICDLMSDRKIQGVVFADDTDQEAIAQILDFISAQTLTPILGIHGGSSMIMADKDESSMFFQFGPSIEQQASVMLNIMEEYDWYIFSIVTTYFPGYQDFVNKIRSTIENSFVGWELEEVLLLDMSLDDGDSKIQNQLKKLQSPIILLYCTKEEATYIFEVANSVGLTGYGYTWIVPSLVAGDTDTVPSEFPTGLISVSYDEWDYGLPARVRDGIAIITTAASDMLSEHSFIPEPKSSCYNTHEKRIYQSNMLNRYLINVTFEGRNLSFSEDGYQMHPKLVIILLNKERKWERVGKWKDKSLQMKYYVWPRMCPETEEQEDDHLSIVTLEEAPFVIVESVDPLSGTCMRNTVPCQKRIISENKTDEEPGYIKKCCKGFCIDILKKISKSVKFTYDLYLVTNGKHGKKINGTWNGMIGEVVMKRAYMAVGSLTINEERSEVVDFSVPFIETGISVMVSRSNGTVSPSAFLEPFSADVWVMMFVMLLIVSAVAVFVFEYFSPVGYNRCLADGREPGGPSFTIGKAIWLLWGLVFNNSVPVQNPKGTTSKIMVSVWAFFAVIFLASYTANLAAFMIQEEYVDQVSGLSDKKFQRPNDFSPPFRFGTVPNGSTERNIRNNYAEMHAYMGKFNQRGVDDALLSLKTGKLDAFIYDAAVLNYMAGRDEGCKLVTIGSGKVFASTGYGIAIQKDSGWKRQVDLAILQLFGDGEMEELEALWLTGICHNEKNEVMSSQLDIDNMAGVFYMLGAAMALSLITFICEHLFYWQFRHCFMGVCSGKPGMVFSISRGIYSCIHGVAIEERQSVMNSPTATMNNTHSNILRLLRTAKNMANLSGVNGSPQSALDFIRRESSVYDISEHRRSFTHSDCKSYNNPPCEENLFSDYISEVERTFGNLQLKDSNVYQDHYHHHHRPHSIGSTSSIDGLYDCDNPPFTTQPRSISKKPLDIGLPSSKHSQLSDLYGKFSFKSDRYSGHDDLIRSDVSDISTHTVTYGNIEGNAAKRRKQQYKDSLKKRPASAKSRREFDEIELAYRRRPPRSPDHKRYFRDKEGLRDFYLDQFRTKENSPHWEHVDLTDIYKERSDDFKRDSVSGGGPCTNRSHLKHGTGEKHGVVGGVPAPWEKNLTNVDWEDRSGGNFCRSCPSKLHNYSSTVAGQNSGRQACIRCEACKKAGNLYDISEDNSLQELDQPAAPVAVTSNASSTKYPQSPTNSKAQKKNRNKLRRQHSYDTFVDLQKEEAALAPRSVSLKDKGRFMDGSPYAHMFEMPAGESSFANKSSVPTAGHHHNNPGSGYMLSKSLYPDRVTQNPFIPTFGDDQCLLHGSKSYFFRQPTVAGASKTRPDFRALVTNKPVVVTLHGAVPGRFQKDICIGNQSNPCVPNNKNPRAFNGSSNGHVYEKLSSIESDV
Where [5] appears, read: daily morphine in vehicle- or control peptide-treated rats.
Setting [6] is: WT mice, morphine 10 mg/kg twice a day, 8 days.
The mark [7] stands for this setting: paclitaxel-treated rats, AP5 50 μM, pregabalin 20 μM, peptides 1 μM.
[8] abbreviates: vehicle-treated rats, AP5 50 μM, pregabalin 20 μM, peptides 1 μM.

Molecules are shown by their SMILES.

For the molecule `CCCCc1nc(Cl)c(CO)n1Cc1ccc(-c2ccccc2-c2nn[nH]n2)cc1` [losartan], the “effect of Ang II on mEPSC frequency in pretreated slices” value in series [1] was “completely blocked”. In addition, the “effect of Ang II on puff NMDA currents in pretreated slices” value in series [1] (30 min) is reported as “abolished”.

Turning to `CC12CC3CC(C)(C1)CC(N)(C3)C2` [memantine], the “pain hypersensitivity induced by Cacna2d1 overexpression (tactile and pressure withdrawal thresholds)” value in series [2] is given as “readily reversed”.

For the molecule `CN1CC[C@]23c4c5ccc(O)c4O[C@H]2[C@@H](O)C=C[C@H]3[C@H]1C5.O=S(=O)(O)O` [morphine, morphine sulfate], the “effect of 5 mg/kg morphine on the withdrawal thresholds” value in the series with morphine-treated rats (by day 6, vehicle- or control peptide-treated rats) is “failed to produce a significant effect”. Besides, in the series with morphine-treated rats (setting [5]), the “anti-nociceptive effect of morphine” value is on record as “gradual decrease”; the “baseline withdrawal thresholds (mechanical and thermal hyperalgesia)” value is given as “gradual reduction”. The “amplitude of monosynaptic EPSCs evoked from the dorsal root” value in series [3] (chronic morphine) is “markedly increased”. In series [3] (morphine 10 mg/kg twice a day for 8 day), the “NMDAR-mediated frequency of mEPSCs of spinal dorsal horn neurons” value was “significantly increased”. Also, the “anti-nociceptive effect of morphine at the end of 8-day treatment” value with WT and Cacna2d1 KO mice (Cacna2d1 KO mice) is given as “largely preserved”. Moreover, the baseline withdrawal threshold result in the series on WT and Cacna2d1 KO mice (Cacna2d1 KO mice, daily morphine) is “did not significantly affect”. Moreover, in the series with WT and Cacna2d1 KO mice (setting [6]), the “anti-nociceptive effect of morphine” value is on record as “diminished”; the “baseline withdrawal thresholds to noxious pressure and heat” value is reported as “gradually reduced”.

Turning to `CC(C)C[C@H](CN)CC(=O)O` [pregabalin], in the series with paclitaxel-treated rats, the “paclitaxel-induced pain hypersensitivity (tactile allodynia, mechanical and thermal hyperalgesia)” value is “readily reversed”. In addition, in series [4] (paclitaxel-treated rats), the “reduced PPR of evoked EPSCs” value is reported as “completely normalized”. Also, in series [4] (setting [7]), the “increased amplitude of evoked monosynaptic EPSCs” value was “returned the amplitude of evoked monosynaptic EPSCs of lamina II neurons to the baseline level” and the “increased frequency of mEPSCs of lamina II neurons” value was “completely normalized”. The “PPR of evoked EPSCs” value in series [4] (vehicle-treated rats) is reported as “had no effect”. Moreover, in series [4] (setting [8]), the “amplitude of evoked monosynaptic EPSCs” value was “had no effect” and the “frequency of mEPSCs of lamina II neurons” value is reported as “had no effect”.
